Marks after values point to notes of the source that are not given here.
Tested on: PPARα response signature
Assay: Signature Projection Score (SPS) of liver gene expression against the PPARα response signature
Assay type: in vivo, male Sprague-Dawley rats
Procedure: Compound dosing was based on the acute dose LD50s recorded in published reference or literature sources. Duplicate rats were dosed at each of 3 doses: at LD50, one-half and one-fourth of LD50. The MTD (maximum tolerated dose) was then selected as the dose at which the animals […] 5-10% body weight during the 5-day range finding study. […] In addition, the clinical observations must show no or mild clinical signs during the whole of the range-finding study. At the next highest dose, signs and symptoms of adverse effects and exceeding those of the MTD should be seen to occur. Should these criteria not be met, the range-finding study is repeated using a modified dose range.
After determination of the MTD and FED for a compound, each compound was dissolved in a vehicle for administration on day 1 of the study (additional daily doses were stored as frozen aliquots from this initial formulation). Each compound was administered to three individual male Sprague-Dawley rats for each of the two doses (MTD and FED) for one of four different times (0.25 day, 1 day, 3 days, and 5 or 7 days), yielding a total of up to 24 animals per compound study. Vehicle choice was based on solubility of the compound, effect of food on adsorption, and the vehicles used in the literature reports examined during the FED selection investigations, described above. Generally, the route and vehicle in which the FED was defined are used. When there was a choice of routes and vehicles, oral routes were chosen over injection routes. Many compounds, especially oncolytics, are only administerable intravenously. In such cases, the compound was administered as an intravenous formulation into the tail vein. Orally administered compounds were given dissolved in either water, 1% carboxymethycellulose (CMC) or corn oil. Intravenously and intraperitoneally administered compounds were given in 0.9% saline. Subcutaneously administered compounds were given in corn oil. Animal body weights were determined at 1 day and, where appropriate, at 4 days, before necropsy, and clinical observations were made on a daily basis. Control animals were dosed with vehicle only. Three male animals were used for each dose and time combination used for the compound treatment.
Tissue harvest and handling: After the allocated treatment time, the tissues from the animals were harvested. […] All the tissues collected were divided to provide samples for histopathological analyses, and the remainder of each tissue was then snap-frozen. […] The parameters were measured using a Hitachi-911 clinical chemistry analysis instrument according to the manufacturer's instructions. The following blood constituents were measured: Blood Urea Nitrogen (BUN), Creatinine (CRE), Glucose (GLU), Alanine Transaminase (ALT), Aspartate Aminotransferase (AST), Alkaline Phosphatase (ALP), Total Bilirubin (TBI), Sodium (SOD), Potassium (POT), Chloride (CHL), Phosphorus (PHO), Total Protein (TPR), Albumin (ALB), Cholesterol (CHO), Creatine Phosphokinase (CPK), Lactate Dehydrogenase (LDH), Carbon Dioxide (CO2), Uric Acid (UA), and Lipase. […] The parameters were measured using a Baker 9000 blood cell analysis instrument according to the manufactures instructions. The following blood constituents were measured: Leukocyte count (WBC), Differential Leukocyte counts, Erythrocyte count (RBC), Hemoglobin concentration (HGB), Hematocrit (HCT), Mean Corpuscular Volume (MCV), Mean Corpuscular Hemoglobin (MCH), Mean Corpuscular Hemoglobin Concentration (MCC), Thrombocyte Count (PLC). Histopathology: Histopathological analyses of hematoxylin and eosin-stained tissue sections were performed and peer-reviewed by board-certified (Diplomate, American College of Veterinary Pathologists) veterinary pathologists.

[1] = rat liver expression data in DrugMatrix database compared with PPARα response signature, normalised so highest training treatment = 100, *= p < 0.01, **= p < 0.001
[2] = rat liver gene expression, in words

Structure (SMILES) | SPS (Sequence Projection Score) [1] | other results
CC1=C(CC(=O)O)c2cc(F)ccc2/C1=C\c1ccc([S+](C)[O-])cc1 (centres unmarked) | 4 | 
C[C@]12CCC(=O)C=C1CC[C@@H]1[C@@H]2CC[C@@]2(C)[C@H]1CC[C@]2(C)O [17-METHYLTESTOSTERONE] | 5 | 
CC(C)c1c(C(=O)Nc2ccccc2)c(-c2ccccc2)c(-c2ccc(F)cc2)n1CC[C@@H](O)C[C@@H](O)CC(=O)O [ATORVASTATIN] | 22* | similarity to the PPARα response signature [2]: significantly similar to the signature
Cn1cnc([N+](=O)[O-])c1Sc1ncnc2nc[nH]c12 [AZATHIOPRINE] | 7 | 
C[C@]12CC[C@@H]3c4ccc(O)cc4CC[C@H]3[C@@H]1CC[C@@H]2O [BETA-ESTRADIOL] | 11 | 
CC(C)(Oc1ccc(CCNC(=O)c2ccc(Cl)cc2)cc1)C(=O)O [BEZAFIBRATE, 2-(4-(2-((4-chlorobenzoyl)amino)ethyl)phenoxy)-2-methylpropanoic acid] |  | SPS (Signature Projection Score) [1]: 102**
CCCCC(CC)COC(=O)c1ccccc1C(=O)OCC(CC)CCCC (centres unmarked) [BIS-2-ETHYLHEXYL PHTHALATE] | 68** | similarity to the PPARα response signature [2]: significantly similar to the signature
Oc1c(Cl)cc(Cl)cc1Sc1cc(Cl)cc(Cl)c1O [BITHIONOL] | 20 | 
COCc1c(C(C)C)nc(C(C)C)c(/C=C/[C@@H](O)C[C@@H](O)CC(=O)O)c1-c1ccc(F)cc1 [CERIVASTATIN] | 15 | 
O=C(O)CCCc1ccc(N(CCCl)CCCl)cc1 [CHLORAMBUCIL] |  | SPS (Signature Projection Score) [1]: 8
N.N.[Cl][Pt][Cl] [CISPLATIN] | 9 | 
CCOC(=O)C(C)(C)Oc1ccc(Cl)cc1 [CLOFIBRATE, 2-(p-chlorophenoxy)-2-methylpropionic acid ethyl ester] | 99** | 
Clc1ccccc1C(c1ccccc1)(c1ccccc1)n1ccnc1 [CLOTRIMAZOLE] | 4 | 
CC(=O)O[C@]1(C(C)=O)CC[C@H]2[C@@H]3C=C(Cl)C4=CC(=O)[C@@H]5C[C@@H]5[C@]4(C)[C@H]3CC[C@@]21C [CYPROTERONE ACETATE] | 5 | 
C[C@@H]1C[C@H]2[C@@H]3CCC4=CC(=O)C=C[C@]4(C)[C@@]3(F)[C@@H](O)C[C@]2(C)[C@@]1(O)C(=O)CO [DEXAMETHASONE] | 9 | 
C#C[C@]1(O)CC[C@H]2[C@@H]3CCc4cc(O)ccc4[C@H]3CC[C@@]21C [ETHINYLESTRADIOL] | 19 | 
OC(Cn1cncn1)(Cn1cncn1)c1ccc(F)cc1F [FLUCONAZOLE] | 4 | 
CC(C)n1c(/C=C/C(O)CC(O)CC(=O)O)c(-c2ccc(F)cc2)c2ccccc21 (centres unmarked) [FLUVASTATIN] |  | SPS (Signature Projection Score) (rat, in vivo): 35*
Cc1ccc(C)c(OCCCC(C)(C)C(=O)O)c1 [GEMFIBROZIL, 5-(2,5-dimethylphenoxy)-2,2-dimethylpentanoic acid] | 65* | 
O=P1(NCCCl)OCCCN1CCCl (centres unmarked) [IFOSFAMIDE] | 9 | 
CC(=O)N1CCN(c2ccc(OCC3COC(Cn4ccnc4)(c4ccc(Cl)cc4Cl)O3)cc2)CC1 (centres unmarked) [KETOCONAZOLE] | 6 | 
Cc1oncc1C(=O)Nc1ccc(C(F)(F)F)cc1 [LEFLUNOMIDE] | 5 | 
CC[C@H](C)C(=O)O[C@H]1C[C@@H](C)C=C2C=C[C@H](C)[C@H](CC[C@@H]3C[C@@H](O)CC(=O)O3)[C@H]21 [LOVASTATIN] |  | SPS (Signature Projection Score) (rat, in vivo): 45*; similarity to the PPARα response signature (rat, in vivo): significantly similar to the signature
CC#C[C@]1(O)CC[C@H]2[C@@H]3CCC4=CC(=O)CCC4=C3[C@@H](c3ccc(N(C)C)cc3)C[C@@]21C [MIFEPRISTONE] | 7 | 
CN(C)C=O [N,N-DIMETHYLFORMAMIDE] | 5 | 
C#C[C@]1(OC(C)=O)CC[C@H]2[C@@H]3CCC4=CC(=O)CC[C@@H]4[C@H]3CC[C@@]21C [NORETHINDRONE ACETATE] | 5 | 
c1ccc2c(c1)Nc1ccccc1S2 [PHENOTHIAZINE] | 23* | 
CC(=O)[C@H]1CC[C@H]2[C@@H]3CCC4=CC(=O)CC[C@]4(C)[C@H]3CC[C@]12C [PROGESTERONE] | 5 | 
O=C(c1ccc(OCCN2CCCCC2)cc1)c1c(-c2ccc(O)cc2)sc2cc(O)ccc12 [RALOXIFENE] | 44* | 
